# Data reported in patent US11401255B2, “Small molecule activators of Parkin enzyme function” (Mayo Foundation for Medical Education and Research, priority 2016, dated 2022).
# Test system: TA 1537
# Test: Ames Test, strain TA 1537
# Details: TA 1537, positive control 7.5 μg/plate (row printed 50; shifted)
# From the text: (§1) The test used amino acid-dependent strains of Salmonella typhimurium and Escherichia coli to detect point mutations which involved substitution, addition or deletion of one or a few DNA base pairs. Point mutations were introduced in the histidine (Salmonella typhimurium) or the tryptophan (Escherichia coli) operon, making the tester strains incapable of producing these amino acids. The test detected mutations that revert the mutations present in the bacteria, restoring the functional capability to synthesize histidine or tryptophan. The revertant bacteria were detected by the ability to grow in the absence of the amino acid required by the parent test strain. A mutagenic potential of a tested compound was assessed by exposing these bacterial strains to different concentrations of the compounds and estimating number of revertant colonies grown in the absence (trace quantities) of the amino acid.
# (§2) DMSO was used as the negative control.
# (§3) For each experiment, tester strain cultures were grown overnight in Oxoid nutrient broth #2 at 37° C. with shaking at 235 rpm to a density of 1-2×10^9 colony forming units/mL (OD540˜2).
# (§4) The tester strain (10 μL of night culture) was mixed with the test agent (10 µL of the DMSO stock) and GM liquid medium (30 μL). The obtained mixture was incubated at room temperature for 5 min in a sterile 1.5 mL tube. Then, to the tube was added 200 μL of molten top agar stored at 44° C. to prevent solidifying. After mixing with a pipette, the mixture was poured onto the surface of a GM agar plate (2.0 mL of GM agar per plate). After solidifying the top agar, the plate was inverted and incubated at 37° C. for 48 hours. Then, results were expressed as number of revertant colonies per plate.
row,SMILES,Mean ± SD
1,"Nc1c2ccccc2nc2ccccc12 [9-aminoacridine, reference compound]",1119 ± 21.21 revertant colonies per plate

# Molecular target: Parkin (Homo sapiens (Human), UniProt O60260)
# Test: Primary HCI assay of EGFP-Parkin translocation to mitochondria
# Type: cell-based
# Details: primary assay screen, Parkin translocation to mitochondria
# Protocol: GFP-Parkin is localized throughout the cell in unstressed cells but translocates to mitochondria when the mitochondrial membrane potential is compromised and Parkin is activated. After automated image acquisition of fixed cells, regions of interest of each cell were defined with the analysis software. […] To quantify the relocalization of GFP-Parkin to mitochondria, the ratio of the GFP intensity in the cytoplasm and the nucleus was calculated. Under non-stressed condition, this ratio is about 1. FIG. 1B is a bar graph showing the results of the assay with a Z factor (Z′) of 0.5-0.8, which indicates its robustness and usefulness as a screening assay. Validation of the assay has been performed by using PINK1 siRNA.
# FIGS. 2A-2C show a primary HCI assay with CCCP titration. FIG. 2A is a graphic description of the primary HCI assay of EGFP-Parkin translocation. HeLa cells stably expressing GFP-Parkin were seeded with 1350 cells per well in 384-well plates (25 μL per well). Cells were allowed to attach overnight before drug was added 2× concentrated in a volume of 25 μL in triplicates. After 2 h, 50 μL of a 2× low-dose CCCP (yielding a final concentration of 3.5 μM CCCP) was added to all wells that contained test compounds and for the negative control. For positive control wells, CCCP was added in a final concentration of 10 μM. After 2 h incubation with CCCP, cells were fixed and labeled with Hoechst for at least 1 h before cells were imaged. […] Values were being normalized to negative and positive control values and plotted as % activity. Z′ was calculated for quality control. Positive controls were indicated in green, negative control wells in red. Drugs that lead to more than 50% activity are considered positive (blue).
# Functional testing of compounds was performed using an established primary HCI assay for Parkin translocation, which correlates well with enzymatic activation (Fiesel et al., J. Cell Science (2014) 127:3488-3504; Fiesel et al., Human Mutation (2015) 36:774-786). In brief, 1400 HeLa cells stably expressing EGFP-Parkin were seeded into optical 384-well plates (Greiner BioOne) in 25 μL media and allowed to adhere for 40 h. Compounds 1, 2, 3, 4, and 31 were added to the plate as 2× concentrated stocks. Control wells were treated with equal volume of DMSO in media. After 2 h, unless otherwise stated, CCCP was added as 2× concentrated stock with a final assay concentration of 10 μM for PC wells and 3.5 μM for test and NC wells. This low dose of CCCP was experimentally determined by a dose response curve of CCCP to result in no Parkin translocation (FIG. 13). After another 2 h, cells were fixed in 4% paraformaldehyde for 10 min and stained with Hoechst 33342 (1:5000, Invitrogen) before plates were imaged and analyzed.
# Image acquisition was performed on a BD Pathway 855 with the Attovision V1.6 software (BD Biosciences). Wells were imaged with a 20× objective using a 2×2 montage with laser autofocus. EGFP exposure time was 0.0175 sec, Hoechst 0.0015 sec. Raw images were not processed and directly analyzed using a build-in ‘RING—2 output’ algorithm. Values were exported and normalized using JMP 11 software and transferred to GraphPad Prism 7 for quality control, graphing and curve fitting for DRCs with a variable slope using four parameters. […] Values were normalized to both PC and NC values from 24 wells each per plate and the Z′ score was calculated. Plates with Z′<0.5 were repeated.
# Parkin, sequence (O60260 whole entry): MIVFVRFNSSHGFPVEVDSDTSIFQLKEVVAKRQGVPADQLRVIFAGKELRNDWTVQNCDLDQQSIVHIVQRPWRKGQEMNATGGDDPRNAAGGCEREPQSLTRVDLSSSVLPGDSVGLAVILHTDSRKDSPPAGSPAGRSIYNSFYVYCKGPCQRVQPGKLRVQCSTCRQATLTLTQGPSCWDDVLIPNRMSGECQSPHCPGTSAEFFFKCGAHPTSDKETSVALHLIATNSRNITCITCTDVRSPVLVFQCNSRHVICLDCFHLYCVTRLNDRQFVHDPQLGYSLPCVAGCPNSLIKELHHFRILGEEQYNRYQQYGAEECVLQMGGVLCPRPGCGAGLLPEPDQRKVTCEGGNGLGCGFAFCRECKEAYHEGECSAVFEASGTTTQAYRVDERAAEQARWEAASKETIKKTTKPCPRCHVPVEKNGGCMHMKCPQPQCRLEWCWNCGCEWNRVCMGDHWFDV
row,SMILES,EC50
1,O=C(Cn1ccnc1)Nc1ccc(-c2ccccc2)c(Cl)c1 [Compound 6],2 µM
2,O=C(Cn1ccnc1)Nc1ccc(CN2CCc3ccccc32)cc1 [Compound 9],5 µM
3,O=C(Cn1ccnc1)Nc1ccc(-c2ccccc2)c(C(F)(F)F)c1 [Compound 12],5 µM
4,O=C(Cn1ccnc1)Nc1nc(-c2ccccc2)co1 [Compound 13],5 µM
5,O=C(Cn1ccnc1)Nc1ccc(Oc2ccccc2)cc1 [Compound 14],5 µM
6,O=C(Cn1ccnc1)Nc1ccc(COC2CCCC2)cc1 [Compound 15],5 µM
7,CC(C)Cc1ccc(NC(=O)Cn2ccnc2)cc1 [Compound 17],5 µM
8,O=C(Cn1ccnc1)Nc1ccc(SC2CCCC2)cc1 [Compound 18],5 µM
9,Cc1nccn1CC(=O)Nc1ccc(-c2ccccc2)cc1 [Compound 19],10 µM
10,O=C(Cc1ccncc1)Nc1ccc(-c2ccccc2)cc1 [Compound 20],10 µM
11,O=C(Nc1ccc(-c2ccccc2)cc1)c1cn2c(n1)CCCC2 [Compound 21],0.238 µM
12,O=C(Cn1cnc2c1CCCC2)Nc1ccc(-c2ccccc2)cn1 [Compound 22],0.246 µM
13,O=C(Cn1cnc2c1CCCC2)Nc1ccc(-c2ccccn2)cc1 [Compound 23],0.272 µM
14,O=C(Cn1cnc2c1CCCC2)Nc1cnc(-c2ccccc2)nc1 [Compound 26],0.938 µM
15,Cc1ccnc(-c2ccc(NC(=O)Cn3cnc4c3CCCC4)cc2)n1 [Compound 27],0.19 µM
16,Cc1nc2c(c(N3CCCN(Cc4noc(C5CC5)n4)CC3)n1)CCCC2 [Compound 42],0.707 µM
17,Cc1nc2c(c(N3CCCN(Cc4cccs4)CC3)n1)CCCC2 [Compound 43],0.28 µM
18,Cc1nc2c(c(N3CCN(Cc4ccccc4)C(C)(C)C3)n1)CCCC2 [Compound 44],0.438 µM
19,Cc1nc2c(c(N3CCCN(Cc4ccc(Cl)cc4)CC3)n1)CCCC2 [Compound 45],0.366 µM

# Next, values leading:
row,EC50,SMILES
1,5 µM,O=C(Cn1ccnc1)Nc1ccc(OCC2CCCCC2)cc1 [Compound 8]
2,5 µM,O=C(Cn1ccnc1)Nc1ccc(C23CC4CC(CC(C4)C2)C3)cc1 [Compound 10]
3,5 µM,O=C(Cn1ccnc1-c1ccncc1)Nc1ccc(-c2ccccc2)cc1 [Compound 11]
4,5 µM,N#Cc1ccc(Oc2ccc(NC(=O)Cn3ccnc3)cc2)cc1 [Compound 16]
5,0.19 µM,Cc1nccc(-c2ccc(NC(=O)Cn3cnc4c3CCCC4)cc2)n1 [Compound 24]
6,0.382 µM,O=C(Cn1cnc2c1CCCC2)Nc1ccc(-c2ccccc2F)nn1 [Compound 25]
7,0.134 µM,Cc1cc(NC(=O)Cn2cnc3c2CCCC3)ccc1-c1ccncc1 [Compound 28]
8,2 µM,O=C(Cn1ccnc1-c1ccccc1)Nc1ccc(-c2ccccc2)cc1 [Compound 29]
9,5 µM,Cc1cc(NC(=O)Cn2ccnc2)ccc1-c1ccccc1 [Compound 30]
10,10 µM,Cc1nc2c(c(N3CCCN(Cc4csc(C)n4)CC3)n1)CCCC2 [Compound 35]
11,> 10 µM,COc1ccc(CN2CCCN(c3ncnc4c3CN(C)CC4)CC2)cc1 [Compound 36]
12,> 10 µM,Cc1nc2c(c(N3CCN(C(=O)c4ccccc4)CC3)n1)CCCC2 [Compound 40]
13,0.203 µM,c1ccc(CN2CCCN(c3ncnc4ncccc34)CC2)cc1 [Compound 46]

# Test system: TA 98
# Test: Ames Test, strain TA 98
# Details: TA 98, positive control 0.1 μg/plate
# From the text: as §1, §2, §3, §4
row,SMILES,Mean ± SD
1,"O=[N+]([O-])c1ccc2c(c1)Cc1ccccc1-2 [2-nitrofluorene, reference compound]",7 ± 1.41 revertant colonies per plate

# Molecular target: CYP 2C9 (Homo sapiens (Human), UniProt P11712)
# Test: P450-Glo CYP450 inhibition, CYP 2C9
# Type: in vitro ADME
# Details: human, P450-Glo Assay System (Promega), CYP 2C9 membranes, CYP 2C9, reference inhibitor 120 uM
# Protocol: CYP450 inhibition profiling provides valuable information regarding any possible drug-drug interactions for a test compound.
# All experiments were performed using P450-Glo™ Assay Systems (Promega) in accordance with the manufacturer's protocols. The P450-Glo™ Assays provide a luminescent readout-based method for measuring cytochrome P450 activity. A conventional cytochrome P450 reaction was performed by incubating the cytochrome P450 and a luminogenic cytochrome P450 substrate. The substrates in the P450-Glo™ assays are derivatives of beetle luciferin. The derivatives themselves are not substrates for luciferase but are converted by cytochrome P450s to luciferin, which in turn reacts with luciferase to produce light. The amount of light produced was directly proportional to cytochrome P450 activity. All test points were performed in quadruplicates. Control membranes (without CYPs) represented the Negative control (baseline).
# The following reference compounds were used to assess CYP inhibition: […]
# CYP 2C9, sequence (P11712 whole entry): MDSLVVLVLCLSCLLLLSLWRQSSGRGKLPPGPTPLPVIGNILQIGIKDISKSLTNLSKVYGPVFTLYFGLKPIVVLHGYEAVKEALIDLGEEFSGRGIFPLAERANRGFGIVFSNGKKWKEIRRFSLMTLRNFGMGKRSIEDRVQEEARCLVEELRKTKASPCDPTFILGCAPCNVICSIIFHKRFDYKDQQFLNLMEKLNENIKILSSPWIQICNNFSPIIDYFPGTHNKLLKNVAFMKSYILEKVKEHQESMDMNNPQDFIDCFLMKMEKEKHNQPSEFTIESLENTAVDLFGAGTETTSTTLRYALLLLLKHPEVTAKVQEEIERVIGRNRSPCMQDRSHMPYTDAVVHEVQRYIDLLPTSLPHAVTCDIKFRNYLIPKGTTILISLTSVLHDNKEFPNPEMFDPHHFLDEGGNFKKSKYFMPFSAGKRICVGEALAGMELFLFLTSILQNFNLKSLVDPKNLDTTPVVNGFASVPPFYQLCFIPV
row,SMILES,inhibition at 120 µM
1,"OC(Cn1cncn1)(Cn1cncn1)c1ccc(F)cc1F [fluconazole, reference compound]",84.5%
